In patent US10611765B2, “Pyrrolopyrimidine derivatives as Mps1/TTK kinase inhibitors” (Ohio State Innovation Foundation, priority 2014, dated 2020):
Read-outs that look alike come from different tables or passages of the source.

Assays:
MDA-MB-453 = test: MTS anti-proliferative assay, MDA-MB-453; type: cell-based; conditions: Homo sapiens, 168 h, MDA-MB-453, luminal A, treatment for 7 days
Protocol: (§1) The anti-proliferative effects and IC50 values of the compounds in the BC cell line panel were determined by MTS assay.
The media were changed every 2-days. When the cells grew to about 80% confluence, cells were washed twice with calcium- and magnesium-free phosphate-buffered saline (PBS, pH 7.4), and then trypsinized with 0.05% trypsin-5.3 mm EDTA. The trypsinization was stopped by addition of culture medium with 5% FBS.
(§2) The BC cells were seeded at the density of 1,000 cells per well (100 μL) into 96 well plate in DMEM/F-12 (1:1), supplemented with 5% (v/v) FCS and incubated overnight at 37° C. Test compounds are solubilized in dimethyl sulfoxide (DMSO), diluted in cell culture medium to a range of final assay concentrations of 1 nM to 10 μM, added to cells and incubated for 7 days at 37° C. The medium including the test compound are refreshed at days 3 and 5. The MTS assay are carried out by using the CellTiter 96® AQueous One Solution Cell Proliferation Assay kit following the manufacturer's instruction.

[1] = target: T1, Mps1/TTK kinase (recombinant GST-Mps1) (Homo sapiens, UniProt P33981); test: Mps1 in vitro kinase assay with Cetn2 substrate; type: biochemical; conditions: read-out: IC50, in vitro kinase activity of Mps1
T1 sequence (P33981 1-857): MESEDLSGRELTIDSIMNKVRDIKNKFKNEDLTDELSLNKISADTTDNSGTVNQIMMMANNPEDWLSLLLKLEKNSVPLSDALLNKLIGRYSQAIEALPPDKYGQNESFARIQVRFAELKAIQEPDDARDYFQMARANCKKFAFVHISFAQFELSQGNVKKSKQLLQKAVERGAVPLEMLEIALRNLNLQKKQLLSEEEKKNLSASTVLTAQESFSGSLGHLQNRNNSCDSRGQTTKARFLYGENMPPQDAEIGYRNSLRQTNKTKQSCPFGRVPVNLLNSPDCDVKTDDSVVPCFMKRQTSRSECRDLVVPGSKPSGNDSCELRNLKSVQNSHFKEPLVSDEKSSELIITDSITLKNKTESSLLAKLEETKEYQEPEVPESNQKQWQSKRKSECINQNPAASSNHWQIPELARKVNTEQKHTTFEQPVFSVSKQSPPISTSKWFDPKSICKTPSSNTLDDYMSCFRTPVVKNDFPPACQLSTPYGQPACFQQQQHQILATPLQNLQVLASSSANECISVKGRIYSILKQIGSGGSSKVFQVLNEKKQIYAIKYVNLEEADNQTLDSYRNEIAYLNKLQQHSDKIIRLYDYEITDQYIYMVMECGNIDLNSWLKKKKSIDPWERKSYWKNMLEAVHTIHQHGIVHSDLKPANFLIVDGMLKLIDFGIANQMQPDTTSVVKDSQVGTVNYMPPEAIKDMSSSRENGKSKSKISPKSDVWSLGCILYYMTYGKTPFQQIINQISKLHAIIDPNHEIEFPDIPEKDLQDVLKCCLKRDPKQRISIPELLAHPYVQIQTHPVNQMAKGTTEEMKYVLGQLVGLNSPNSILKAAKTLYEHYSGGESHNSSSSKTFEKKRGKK
Protocol: To determine the efficacy of the compounds against Mps1/TTK kinase activity, assays were performed as previously described (11) using recombinant Mps1, Cetn2 (specific substrate), and varying concentration of compound.

Sk-Br-3 = test: MTS anti-proliferative assay, Sk-Br-3; type: cell-based; conditions: Homo sapiens, 168 h, Sk-Br-3, luminal, treatment for 7 days
Protocol: as §1
The cells, except Sk-Br-3, AU565 and BT-474 were maintained in a mixture of Dulbecco's modified Eagle's medium and Ham's F12 medium (1:1) (DMEM/F12) without phenol red supplemented with 5% fetal bovine serum (FBS) and 1× antibiotic-antimycotic (100 U/mL penicillin G sodium, 100 μg/mL streptomycin sulfate and 0.25 μg/mL amphotericin B) and were plated separately in flasks in a humidified incubator (5% CO2: 95% air, 37° C.). The media used for Sk-Br-3, AU565 and BT-474 cell lines was described in (1) Brueggemeier et al., J. Steroid Biochem. Mol. Biol., 2005; 95:129-136; and (2) Diaz-Cruz et al., J. Clin. Endocrinol. Metab., 2005; 90:2563-2570. The media were changed every 2-days. When the cells grew to about 80% confluence, cells were washed twice with calcium- and magnesium-free phosphate-buffered saline (PBS, pH 7.4), and then trypsinized with 0.05% trypsin-5.3 mm EDTA. The trypsinization was stopped by addition of culture medium with 5% FBS. After centrifugation, the dissociated cells were resuspended in the same medium and subcultured into 75-cm^2 culture flasks at a ratio of 1:5 flasks.
as §2

twenty common kinases = test: Kinase profiling assays for twenty common kinases; type: biochemical
Protocol: (§3) Briefly, the inhibition potency to Mps1 kinase activity was determined by measurement of radioactive phosphotransfer to the specific substrate, Cetn2. The autophosphorylation of Mps1 was also measured using the same method without adding Cetn2 in the kinase assay reaction mixture. […] Mps1 activity was measured using 0.25 ng of recombinant GST-Mps1 protein in 50 mM TrisCl pH 7.5, 0.5 mM DTT, 10 mM MgCl2, 300 μM recombinant Cetn2 and 3 μM ^32P-γ-ATP. […] ATP was added to initiate the kinase assay, incubated at 30° C. for 30 min and five-fold volume of […] was added to quench the reaction. The whole reaction was immobilized on Immobilon-P^SQ PVDF membrane (Millipore) using a dot blotter connected to vacuum line. Each well was washed three times with 300 μL of PBS. The membrane was further washed by soaking in PBS, dried, and exposed overnight to a Phosphor Screen. The image was acquired by the Storm imaging system (Amersham). The density analyses were performed by using Image-J program, and kinetic constants were calculated by GraphPad Prism 5 software. Commercial kinase profiling assays were performed by Reaction Biology Corp., Malvern, Pa.

Cal-51 cells (tumor) = test: Tumor progression in athymic nude mice; type: in vivo; conditions: Cal-51 tumors, i.p. injection in DMSO, five-week study
Protocol: Compound 13 in DMSO was administered to the test mice by i.p. injection. Cal-51 cells were injected to induce tumor growth. At the end of the five-week study, the mice were sacrificed, and the tumors were measured, dissected and weighed (FIGS. 6 and 7).

[2] = target: Mps1 (autophosphorylation) (Homo sapiens, UniProt P33981); test: biochemical
Protocol: as §3

JNK1 = JNK1 (Homo sapiens, UniProt P45983); conditions: read-out: IC50 JNK1; kinase profiling
Protocol: as §3

[3] = additional investigations (text to Table 2)

JNK1, sequence (P45983 whole entry): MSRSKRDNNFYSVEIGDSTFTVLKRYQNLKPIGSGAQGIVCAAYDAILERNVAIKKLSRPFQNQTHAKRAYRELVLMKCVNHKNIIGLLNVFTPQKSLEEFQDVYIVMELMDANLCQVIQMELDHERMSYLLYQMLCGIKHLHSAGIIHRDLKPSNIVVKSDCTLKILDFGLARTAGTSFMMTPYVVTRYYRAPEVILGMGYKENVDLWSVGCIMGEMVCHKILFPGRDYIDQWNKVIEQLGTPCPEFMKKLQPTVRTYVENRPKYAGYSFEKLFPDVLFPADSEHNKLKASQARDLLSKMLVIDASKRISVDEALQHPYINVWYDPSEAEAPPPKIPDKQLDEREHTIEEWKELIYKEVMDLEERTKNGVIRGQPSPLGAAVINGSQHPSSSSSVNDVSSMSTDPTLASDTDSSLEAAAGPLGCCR

Row | Structure (SMILES) | IC50 (MDA-MB-453) [nM] | IC50 [1, 3] [nM] | IC50 ([1]; preliminary investigations) [nM] | IC50 (Sk-Br-3) [nM] | kinases inhibited in profiling of twenty common kinases (twenty common kinases) | tumor progression (Cal-51 cells (tumor)) | IC50 [2] [nM] | IC50 (JNK1) [nM]
1 | COc1cc(N2CCC(O)CC2)ccc1Nc1nc(Nc2ccccc2S(=O)(=O)C(C)C)c2cc[nH]c2n1 [Compound 1, 1-(4-((4-((2-(isopropylsulfonyl)phenyl)amino)-7H-pyrrolo[2,3-d]pyrimidin-2-yl)amino)-3-methoxyphenyl)piperidin-4-ol] | 820 | 809 | 155 | > 10000 |  |  |  | 
2 | COc1cc(N2CCOCC2)ccc1Nc1nc(NC2CCCCC2)c2cc[nH]c2n1 [Compound 13, N4-cyclohexyl-N2-(2-methoxy-4-morpholinophenyl)-7H-pyrrolo[2,3-d]pyrimidine-2,4-diamine] |  | 356 | 30 | 780 | only two kinases | slowed the tumor progression | 312 | 1670
